Key:
[1] = molecular target: Serine/threonine-protein kinase 16 (Homo sapiens) (UniProt O75716); assay: Inhibition of MPSK1 K2 labeling site in human Huh-7 cells at 10 uM by KiNativ Profiling analysis relative to control; format: cell-based
[2] = molecular target: Ribosomal protein S6 kinase alpha-1 (Homo sapiens) (UniProt Q15418); assay: Inhibition of RSK1 Domain 1 ACT labeling site harbouring LTDFGLSKEAIDHEKK in human Huh-7 cells at 1 uM by KiNativ Profiling analysis relative to control; format: cell-based
Chain of Ribosomal protein S6 kinase alpha-1 (Homo sapiens) (Q15418 whole entry, the tested form may be a part): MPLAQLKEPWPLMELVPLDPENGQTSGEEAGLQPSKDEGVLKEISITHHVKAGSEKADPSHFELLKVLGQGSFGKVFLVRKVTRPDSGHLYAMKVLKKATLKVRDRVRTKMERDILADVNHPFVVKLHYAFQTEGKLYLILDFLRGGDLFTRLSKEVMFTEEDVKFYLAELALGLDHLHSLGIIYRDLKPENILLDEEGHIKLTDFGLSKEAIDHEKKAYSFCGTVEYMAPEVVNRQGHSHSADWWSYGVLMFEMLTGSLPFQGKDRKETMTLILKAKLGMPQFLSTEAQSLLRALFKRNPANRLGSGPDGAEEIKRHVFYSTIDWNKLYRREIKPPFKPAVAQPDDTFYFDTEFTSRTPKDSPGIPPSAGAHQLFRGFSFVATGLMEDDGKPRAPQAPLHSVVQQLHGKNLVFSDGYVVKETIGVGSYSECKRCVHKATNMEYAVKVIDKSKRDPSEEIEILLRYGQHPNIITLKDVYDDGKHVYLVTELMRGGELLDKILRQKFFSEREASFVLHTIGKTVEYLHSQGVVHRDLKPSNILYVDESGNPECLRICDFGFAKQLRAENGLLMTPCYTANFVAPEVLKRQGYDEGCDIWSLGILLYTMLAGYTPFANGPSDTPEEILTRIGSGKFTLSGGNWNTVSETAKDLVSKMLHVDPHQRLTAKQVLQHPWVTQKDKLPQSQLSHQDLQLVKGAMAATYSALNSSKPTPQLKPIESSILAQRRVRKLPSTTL

[3] = molecular target: T1, Mitogen-activated protein kinase kinase kinase 5 (Homo sapiens) (UniProt Q99683); assay: Inhibition of MAP3K5 Lys1 labeling site harbouring IAIKEIPERDSR in human A-375 cells at 5 uM by KiNativ Profiling analysis relative to control; format: cell-based
T1 sequence (whole entry): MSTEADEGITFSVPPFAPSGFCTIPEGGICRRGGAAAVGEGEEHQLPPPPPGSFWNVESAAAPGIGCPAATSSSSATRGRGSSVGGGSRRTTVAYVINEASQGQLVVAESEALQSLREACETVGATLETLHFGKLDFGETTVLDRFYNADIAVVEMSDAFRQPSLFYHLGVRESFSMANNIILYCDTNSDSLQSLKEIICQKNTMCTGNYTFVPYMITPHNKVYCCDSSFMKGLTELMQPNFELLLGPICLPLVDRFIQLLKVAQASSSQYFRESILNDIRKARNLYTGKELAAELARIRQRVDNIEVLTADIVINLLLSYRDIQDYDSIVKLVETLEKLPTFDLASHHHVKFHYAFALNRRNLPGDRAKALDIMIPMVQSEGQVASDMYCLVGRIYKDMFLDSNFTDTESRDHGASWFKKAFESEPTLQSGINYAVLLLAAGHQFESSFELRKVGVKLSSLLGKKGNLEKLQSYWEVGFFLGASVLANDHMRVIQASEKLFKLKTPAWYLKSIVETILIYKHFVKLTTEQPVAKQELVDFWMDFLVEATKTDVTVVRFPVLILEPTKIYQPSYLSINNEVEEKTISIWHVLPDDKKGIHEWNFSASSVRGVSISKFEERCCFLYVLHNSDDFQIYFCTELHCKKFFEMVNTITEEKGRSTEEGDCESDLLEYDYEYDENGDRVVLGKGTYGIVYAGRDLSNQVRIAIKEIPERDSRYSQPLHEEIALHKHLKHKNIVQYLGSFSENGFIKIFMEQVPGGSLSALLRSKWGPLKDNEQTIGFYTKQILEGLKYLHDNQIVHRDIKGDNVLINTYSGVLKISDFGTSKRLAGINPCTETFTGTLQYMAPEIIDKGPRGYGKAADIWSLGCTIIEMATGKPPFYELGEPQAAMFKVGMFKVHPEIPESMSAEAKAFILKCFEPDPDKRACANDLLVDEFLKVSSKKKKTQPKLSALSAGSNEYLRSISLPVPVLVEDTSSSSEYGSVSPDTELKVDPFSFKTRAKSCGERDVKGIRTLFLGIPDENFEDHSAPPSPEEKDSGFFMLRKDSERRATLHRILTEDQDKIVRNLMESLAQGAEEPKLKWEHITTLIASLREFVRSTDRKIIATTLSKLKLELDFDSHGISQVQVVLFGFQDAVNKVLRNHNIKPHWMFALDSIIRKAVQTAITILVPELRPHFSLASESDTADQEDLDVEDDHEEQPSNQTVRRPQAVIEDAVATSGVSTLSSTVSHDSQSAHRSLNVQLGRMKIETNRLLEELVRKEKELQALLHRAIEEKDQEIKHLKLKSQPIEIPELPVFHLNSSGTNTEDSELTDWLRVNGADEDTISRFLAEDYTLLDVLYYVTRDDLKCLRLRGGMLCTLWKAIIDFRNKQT

[4] = molecular target: Wee1-like protein kinase (Homo sapiens) (UniProt P30291); assay: Inhibition of WEE1 (unknown origin) at 1 uM by Ambit Kinomescan binding assay relative to control
Chain of Wee1-like protein kinase (Homo sapiens) (P30291 whole entry, looked up): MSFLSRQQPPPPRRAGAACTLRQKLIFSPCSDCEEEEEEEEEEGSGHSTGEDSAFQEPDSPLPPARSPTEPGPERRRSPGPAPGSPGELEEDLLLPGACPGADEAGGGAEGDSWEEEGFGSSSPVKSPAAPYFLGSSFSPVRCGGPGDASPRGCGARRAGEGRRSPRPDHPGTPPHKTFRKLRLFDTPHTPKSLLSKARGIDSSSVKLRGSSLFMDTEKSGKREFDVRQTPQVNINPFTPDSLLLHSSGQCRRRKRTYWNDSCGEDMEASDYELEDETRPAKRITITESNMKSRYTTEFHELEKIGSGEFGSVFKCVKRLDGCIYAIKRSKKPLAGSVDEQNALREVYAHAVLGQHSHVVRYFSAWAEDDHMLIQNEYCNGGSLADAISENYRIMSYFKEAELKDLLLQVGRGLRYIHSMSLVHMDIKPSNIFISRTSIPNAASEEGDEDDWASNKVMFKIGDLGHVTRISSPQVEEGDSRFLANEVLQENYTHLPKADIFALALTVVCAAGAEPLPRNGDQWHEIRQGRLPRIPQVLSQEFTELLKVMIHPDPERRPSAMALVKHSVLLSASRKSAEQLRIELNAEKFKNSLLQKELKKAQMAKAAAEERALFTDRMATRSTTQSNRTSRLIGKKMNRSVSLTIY

[5] = molecular target: Mitogen-activated protein kinase 14 (Homo sapiens, UniProt Q16539); assay: Inhibition of p38 alpha (unknown origin) at 1 uM by Ambit Kinomescan binding assay relative to control; values are per cent of control
Chain of Mitogen-activated protein kinase 14 (Q16539 whole entry): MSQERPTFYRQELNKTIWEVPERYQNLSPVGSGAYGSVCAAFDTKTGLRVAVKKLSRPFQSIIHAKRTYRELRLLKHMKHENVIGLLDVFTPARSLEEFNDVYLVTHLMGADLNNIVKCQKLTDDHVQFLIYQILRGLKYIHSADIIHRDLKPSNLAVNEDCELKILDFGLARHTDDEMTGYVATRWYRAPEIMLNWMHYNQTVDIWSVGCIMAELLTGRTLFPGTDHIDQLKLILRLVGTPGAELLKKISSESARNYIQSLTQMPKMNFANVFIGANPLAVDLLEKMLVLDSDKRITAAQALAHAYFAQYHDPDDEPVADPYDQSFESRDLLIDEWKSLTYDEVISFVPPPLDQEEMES

[6] = molecular target: T2, Mitogen-activated protein kinase 13 (Homo sapiens) (UniProt O15264); assay: Inhibition of p38 delta (unknown origin) at 1 uM by Ambit Kinomescan binding assay relative to control
T2 sequence (whole entry): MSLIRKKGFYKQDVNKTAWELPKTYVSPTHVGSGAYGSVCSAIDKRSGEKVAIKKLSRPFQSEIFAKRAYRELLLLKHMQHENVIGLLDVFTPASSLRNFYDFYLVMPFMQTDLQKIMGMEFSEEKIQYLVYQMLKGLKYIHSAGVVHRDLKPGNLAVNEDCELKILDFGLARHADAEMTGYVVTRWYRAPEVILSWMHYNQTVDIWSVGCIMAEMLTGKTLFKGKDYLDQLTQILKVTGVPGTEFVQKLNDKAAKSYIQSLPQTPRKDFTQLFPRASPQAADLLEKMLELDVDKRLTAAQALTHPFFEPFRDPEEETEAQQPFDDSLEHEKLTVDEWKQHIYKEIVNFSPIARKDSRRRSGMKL

[7] = molecular target: Serine/threonine-protein kinase 4 (Homo sapiens) (UniProt Q13043); assay: Inhibition of MST1 Lys1 labeling site harbouring ETGQIVAIKQVPVESDLQEIIK in human A-375 cells at 0.05 uM by KiNativ Profiling analysis relative to control
Chain of Serine/threonine-protein kinase 4 (Homo sapiens) (Q13043 whole entry, looked up): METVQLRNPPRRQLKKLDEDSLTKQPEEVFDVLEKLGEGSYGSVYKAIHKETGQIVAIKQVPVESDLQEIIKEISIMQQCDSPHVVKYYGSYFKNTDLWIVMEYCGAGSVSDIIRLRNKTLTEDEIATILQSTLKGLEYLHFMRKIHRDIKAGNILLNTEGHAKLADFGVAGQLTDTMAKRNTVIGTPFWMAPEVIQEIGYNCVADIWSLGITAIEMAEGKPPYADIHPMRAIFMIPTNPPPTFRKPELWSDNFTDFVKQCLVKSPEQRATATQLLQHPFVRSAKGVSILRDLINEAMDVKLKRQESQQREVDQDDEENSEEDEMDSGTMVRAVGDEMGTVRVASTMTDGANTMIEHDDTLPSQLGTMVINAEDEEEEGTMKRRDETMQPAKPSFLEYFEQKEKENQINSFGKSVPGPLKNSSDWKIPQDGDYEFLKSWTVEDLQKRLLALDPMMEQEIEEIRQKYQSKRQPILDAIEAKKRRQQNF

[8] = molecular target: Activin receptor type-1 (Homo sapiens) (UniProt Q04771); assay: Inhibition of ACVR1 (unknown origin) at 1 uM by Ambit Kinomescan binding assay relative to control
Chain of Activin receptor type-1 (Homo sapiens) (Q04771 whole entry): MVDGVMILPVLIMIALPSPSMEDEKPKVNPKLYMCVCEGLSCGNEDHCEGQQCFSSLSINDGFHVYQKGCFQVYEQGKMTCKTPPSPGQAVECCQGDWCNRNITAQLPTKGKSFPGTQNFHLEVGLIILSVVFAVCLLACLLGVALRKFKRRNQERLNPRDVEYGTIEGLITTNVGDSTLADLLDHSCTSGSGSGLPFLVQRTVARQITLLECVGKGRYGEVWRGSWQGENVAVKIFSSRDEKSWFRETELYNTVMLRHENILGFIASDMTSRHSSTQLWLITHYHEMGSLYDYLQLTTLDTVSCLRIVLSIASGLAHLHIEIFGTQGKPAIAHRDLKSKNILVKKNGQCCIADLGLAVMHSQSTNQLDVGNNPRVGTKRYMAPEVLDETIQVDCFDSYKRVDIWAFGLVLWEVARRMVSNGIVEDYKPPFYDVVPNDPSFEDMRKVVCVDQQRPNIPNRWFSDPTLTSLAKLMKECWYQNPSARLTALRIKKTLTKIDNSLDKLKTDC

[9] = molecular target: T3, Interleukin-1 receptor-associated kinase 4 (Homo sapiens) (UniProt Q9NWZ3); assay: Inhibition of IRAK4 (unknown origin) at 1 uM by Ambit Kinomescan binding assay relative to control
T3 sequence (whole entry): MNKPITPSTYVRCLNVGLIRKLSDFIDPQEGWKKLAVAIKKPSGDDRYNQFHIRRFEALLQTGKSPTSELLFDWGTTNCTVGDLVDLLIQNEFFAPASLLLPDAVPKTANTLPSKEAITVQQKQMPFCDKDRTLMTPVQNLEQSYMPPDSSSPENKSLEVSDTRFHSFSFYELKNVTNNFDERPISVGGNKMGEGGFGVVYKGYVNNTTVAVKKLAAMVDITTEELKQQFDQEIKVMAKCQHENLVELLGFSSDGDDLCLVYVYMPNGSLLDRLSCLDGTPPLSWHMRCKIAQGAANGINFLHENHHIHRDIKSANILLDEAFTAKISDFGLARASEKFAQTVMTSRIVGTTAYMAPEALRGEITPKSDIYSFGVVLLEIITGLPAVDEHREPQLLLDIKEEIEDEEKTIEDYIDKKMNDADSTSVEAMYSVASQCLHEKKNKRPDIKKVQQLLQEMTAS

[10] = test system: Tyrosine-protein kinase ABL1 (Homo sapiens), P00519 [T315I]; assay: Inhibition of phosphorylated ABL1 T315I mutant (unknown origin) at 1 uM by Ambit Kinomescan binding assay relative to control; values are per cent of control

Chain of Serine/threonine-protein kinase 16 (Homo sapiens) (O75716 whole entry, the tested form may be a part): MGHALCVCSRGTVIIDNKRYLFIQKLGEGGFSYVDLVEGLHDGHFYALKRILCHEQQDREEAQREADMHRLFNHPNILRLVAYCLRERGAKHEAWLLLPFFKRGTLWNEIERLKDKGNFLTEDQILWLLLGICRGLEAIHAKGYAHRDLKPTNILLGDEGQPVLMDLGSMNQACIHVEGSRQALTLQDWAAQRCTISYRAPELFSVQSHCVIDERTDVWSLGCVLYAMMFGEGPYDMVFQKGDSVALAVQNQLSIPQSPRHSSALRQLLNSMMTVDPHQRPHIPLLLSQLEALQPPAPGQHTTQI

SMILES	inhibition [1] [%]	inhibition [2] [%]	inhibition [3] [%]	inhibition [4] [%]	residual activity [5] [%]	inhibition [6] [%]	inhibition [7] [%]	inhibition [8] [%]	inhibition [9] [%]	percent of control [10] [%]
CCN1CCN(Cc2ccc(NC(=O)c3ccc(C)c(Oc4ccnc5[nH]ccc45)c3)cc2C(F)(F)F)CC1	19.2	6.9	-3.2							
CCN1CCN(Cc2ccc(NC(=O)c3ccc(C)c(/C=C/c4cnc5[nH]ccc5c4OC)c3)cc2C(F)(F)F)CC1				100	1.7	67	11.9	100	100	5.4
